Like-named read-outs stand apart in the source and are kept apart here.
Tested on: SARS-CoV-2 strain USA-WA1/2020
Assay: microbe, parasite or virus in culture
Type: cell-based
Conditions: read-out: EC50, uM (Hela)
[1] = HeLa-ACE2 cells, SARS-CoV-2 infection, 24 h, class symbols
[2] = Severe acute respiratory syndrome coronavirus 2, HeLa-ACE2, 24 h, HeLa-ACE2 cells, SARS-CoV-2 infection, 24 h
[3] = Severe acute respiratory syndrome coronavirus 2, HeLa-ACE2, 24 h, HeLa-ACE2 cells, SARS-CoV-2 infection, 24 h, class symbols
[4] = Severe acute respiratory syndrome coronavirus 2, HeLa-ACE2, 24 h, HeLa-ACE2 cells, SARS-CoV-2 infection, 24 h, given as bound

| Structure (SMILES) | EC50 [2] [µM] | further results |
| --- | --- | --- |
| COc1cccc2[nH]c(C(=O)N[C@@H](CC(C)C)C(=O)N[C@@H](C[C@@H]3CCNC3=O)C(=O)COC(=O)c3c(Cl)cccc3Cl)cc12 [Compound 3, (S)-3-((S)-2-(4-methoxy-1H-indole-2-carboxamido)-4-methylpentanamido)-2-oxo-4-((S)-2-oxopyrrolidin-3-yl)butyl 2,6-dichlorobenzoate] | – | EC50 [1]: 0.2 to 0.5 µM |
| CC1(C)[C@@H]2[C@@H](C(=O)N[C@@H](C[C@@H]3CCNC3=O)C(=O)COC(F)(F)F)N(C(=O)[C@@H](O)c3ccccc3)C[C@@H]21 [Compound 416, (1R,2S,5S)-3-((S)-2-hydroxy-2-phenylacetyl)-6,6-dimethyl-N—((S)-3-oxo-1-((S)-2-oxopyrrolidin-3-yl)-4-(trifluoromethoxy)butan-2-yl)-3-azabicyclo[3.1.0]hexane-2-carboxamide] | < 0.05 | – |
| CC(C)C[C@H](CC(=O)NCc1ccccc1F)C(=O)N[C@@H](C[C@@H]1CCNC1=O)C(=O)COc1c(F)c(F)cc(F)c1F [Compound 54, (R)-N4-(2-fluorobenzyl)-2-isobutyl-N1-((S)-3-oxo-1-((S)-2-oxopyrrolidin-3-yl)-4-(2,3,5,6-tetrafluorophenoxy)butan-2-yl)succinamide] | – | EC50 (Severe acute respiratory syndrome coronavirus 2, HeLa-ACE2, 24 h): > 1 µM |
| CC(C)C[C@H](NC(=O)[C@H](CCCCN)NC(=O)c1ccccc1F)C(=O)N[C@@H](C[C@@H]1CCNC1=O)C(=O)COC(F)(F)F [Compound 208, N-((S)-6-amino-1-(((S)-4-methyl-1-oxo-1-(((S)-3-oxo-1-((S)-2-oxopyrrolidin-3-yl)-4-(trifluoromethoxy)butan-2-yl)amino)pentan-2-yl)amino)-1-oxohexan-2-yl)-2-fluorobenzamide] | – | EC50 (Severe acute respiratory syndrome coronavirus 2, HeLa-ACE2, 24 h, HeLa-ACE2 cells, SARS-CoV-2 infection, 24 h, bound printed in cell): > 1 µM |
| CC(C)C[C@@H](O)C(=O)N1CC2(CC2)C[C@H]1C(=O)N[C@@H](C[C@@H]1CCCNC1=O)C(=O)COc1c(F)c(F)c(F)c(F)c1F [Compound 779, (S)-5-((R)-2-hydroxy-4-methylpentanoyl)-N-((S)-3-oxo-1-((S)-2-oxopiperidin-3-yl)-4-(perfluorophenoxy)butan-2-yl)-5-azaspiro[2.4]heptane-6-carboxamide] | < 0.05 | – |
| O=C(NC1CCCCC1)C(=O)N1C[C@@H]2CCC[C@@H]2[C@H]1C(=O)N[C@@H](C[C@@H]1CCNC1=O)C(=O)COC(F)(F)F [Compound 467, (1S,3aR,6aS)-2-(2-(cyclohexylamino)-2-oxoacetyl)-N-((S)-3-oxo-1-((S)-2-oxopyrrolidin-3-yl)-4-(trifluoromethoxy)butan-2-yl)octahydrocyclo-penta[c]pyrrole-1-carboxamide] | 0.5 to 1 | – |
| CC[C@@H](OC)C(=O)N[C@@H](CC(C)C)C(=O)N[C@@H](C[C@@H]1CCNC1=O)C(=O)COC(F)(F)F [Compound 337, (S)-2-((R)-2-methoxybutanamido)-4-methyl-N-((S)-3-oxo-1-((S)-2-oxopyrrolidin-3-yl)-4-(trifluoromethoxy)butan-2-yl)pentanamide] | – | EC50 [3]: 0.05 to 0.2 µM |
| O=C1NCC[C@H]1C[C@H](NC(=O)[C@@H]1CC2(CC2)CN1C(=O)Cc1ccccc1)C(=O)COC(F)(F)F [Compound 648, (S)-N-((S)-3-oxo-1-((S)-2-oxopyrrolidin-3-yl)-4-(trifluoromethoxy)butan-2-yl)-5-(2-phenylacetyl)-5-azaspiro[2.4]heptane-6-carboxamide] | < 0.05 | – |
| O=C1NCC[C@H]1C[C@H](NC(=O)[C@@H]1CC2(CC2)CN1C(=O)c1ccc2c(c1)OC(F)(F)O2)C(=O)COC(F)(F)F [Compound 687, (S)-5-(2,2-difluorobenzo[d][1,3]dioxole-5-carbonyl)-N-((S)-3-oxo-1-((S)-2-oxopyrrolidin-3-yl)-4-(trifluoromethoxy)butan-2-yl)-5-azaspiro[2.4]heptane-6-carboxamide] | < 0.05 | – |
| CO[C@@H]1C[C@@H](C(=O)N[C@@H](C[C@@H]2CCNC2=O)C(=O)COC(F)(F)F)N(C(=O)C(=O)NC(C)(C)C)C1 [Compound 537, (2S,4R)-1-(2-(tert-butylamino)-2-oxoacetyl)-4-methoxy-N-((S)-3-oxo-1-((S)-2-oxopyrrolidin-3-yl)-4-(trifluoromethoxy)butan-2-yl)pyrrolidine-2-carboxamide] | – | EC50 [4]: > 1 µM |
| O=C1NCC[C@H]1C[C@H](NC(=O)[C@@H]1CC2(CC2)CN1C(=O)C12CC(F)(C1)C2)C(=O)COC(F)(F)F [Compound 627, (S)-5-(3-fluorobicyclo[1.1.1]pentane-1-carbonyl)-N-((S)-3-oxo-1-((S)-2-oxopyrrolidin-3-yl)-4-(trifluoromethoxy)butan-2-yl)-5-azaspiro[2.4]heptane-6-carboxamide] | 0.05 to 0.2 | – |
| CC1(C)[C@@H]2[C@@H](C(=O)N[C@@H](C[C@@H]3CCNC3=O)C(=O)COC(F)(F)F)N(C(=O)C3(O)CCC(F)(F)CC3)C[C@@H]21 [Compound 630, (1R,2S,5S)-3-(4,4-difluoro-1-hydroxycyclohexane-1-carbonyl)-6,6-dimethyl-N-((S)-3-oxo-1-((S)-2-oxopyrrolidin-3-yl)-4-(trifluoromethoxy)butan-2-yl)-3-azabicyclo[3.1.0]hexane-2-carboxamide] | 0.05 to 0.2 | – |
| CC(C)C[C@H](NC(=O)O[C@H]1CCOC1)C(=O)N[C@@H](C[C@@H]1CCNC1=O)C(=O)COc1c(F)c(F)cc(F)c1F [Compound 127, (S)-tetrahydrofuran-3-yl ((S)-4-methyl-1-oxo-1-(((S)-3-oxo-1-((S)-2-oxopyrrolidin-3-yl)-4-(2,3,5,6-tetrafluorophenoxy)butan-2-yl)amino)pentan-2-yl)carbamate] | – | EC50 [3]: 0.5 to 1 µM |
| O=C1NCC[C@H]1C[C@H](NC(=O)[C@@H]1CC2(CC2)CN1C(=O)C1(O)CCCC1)C(=O)COC(F)(F)F [Compound 423, (S)-5-(l-hydroxycyclopentane-1-carbonyl)-N-((S)-3-oxo-1-((S)-2-oxopyrrolidin-3-yl)-4-(trifluoromethoxy)butan-2-yl)-5-azaspiro[2.4]heptane-6-carboxamide] | 0.05 to 0.2 | – |
| CC1(C)CCc2onc(C(=O)N3CC4(CC4)C[C@H]3C(=O)N[C@@H](C[C@@H]3CCNC3=O)C(=O)COC(F)(F)F)c2C1 [Compound 568, (S)-5-(5,5-dimethyl-4,5,6,7-tetrahydro-benzo[d]isoxazole-3-carbonyl)-N-((S)-3-oxo-1-((S)-2-oxopyrrolidin-3-yl)-4-(trifluoromethoxy)butan-2-yl)-5-azaspiro[2.4]-heptane-6-carboxamide] | 0.05 to 0.2 | – |
| COc1cccc2[nH]c(C(=O)N[C@@H](CC(C)C)C(=O)N[C@@H](C[C@@H]3CCNC3=O)C(=O)COC(=O)c3c(Cl)cccc3Cl)cc12 [Compound 8, (S)-3-((S)-2-(4-methoxy-1H-indole-2-carboxamido)-4-methylpentanamido)-2-oxo-4-((S)-2-oxopyrrolidin-3-yl)butyl 2,6-dichlorobenzoate] | – | EC50 [1]: 0.05 to 0.2 µM |
| CC(C)C[C@@H](O)C(=O)N1C[C@@H](CC2CCC2)C[C@H]1C(=O)N[C@@H](C[C@@H]1CCNC1=O)C(=O)COC(F)(F)F [Compound 772, (2S,4S)-4-(cyclobutylmethyl)-1-((R)-2-hydroxy-4-methylpentanoyl)-N-((S)-3-oxo-1-((S)-2-oxopyrrolidin-3-yl)-4-(trifluoromethoxy)butan-2-yl)pyrrolidine-2-carboxamide] | < 0.05 | – |
| [2H]C([2H])([2H])C([2H])([2H])C([2H])([2H])C(=O)N1CC2(CC2)C[C@H]1C(=O)N[C@@H](C[C@@H]1CCNC1=O)C(=O)COC(F)(F)F [Compound 736, (S)-5-(butanoyl-d7)-N-((S)-3-oxo-1-((S)-2-oxopyrrolidin-3-yl)-4-(trifluoromethoxy)butan-2-yl)-5-azaspiro[2.4]heptane-6-carboxamide] | < 0.05 | – |
| CC1(C)C[C@@H](C(=O)N[C@@H](C[C@@H]2CCNC2=O)C(=O)COC(F)(F)F)N(C(=O)C(=O)NC2(C)CC2)C1 [Compound 540, (S)-4,4-dimethyl-1-(2-((1-methylcyclo-propyl)amino)-2-oxoacetyl)-N-((S)-3-oxo-1-((S)-2-oxopyrrolidin-3-yl)-4-(trifluoromethoxy)butan-2-yl)pyrrolidine-2-carboxamide] | – | EC50 [4]: > 1 µM |
| Cc1ccccc1NC(=O)C(=O)N1CC2(CC2)C[C@H]1C(=O)N[C@@H](C[C@@H]1CCNC1=O)C(=O)COC(F)(F)F [Compound 527, (S)-N-((S)-3-oxo-1-((S)-2-oxopyrrolidin-3-yl)-4-(trifluoromethoxy)butan-2-yl)-5-(2-oxo-2-(o-tolylamino)acetyl)-5-azaspiro[2.4]heptane-6-carboxamide] | < 0.05 | – |
| O=C1NCC[C@H]1C[C@H](NC(=O)[C@@H]1CC2(CC2)CN1C(=O)c1ccccc1C(F)(F)F)C(=O)COC(F)(F)F [Compound 686, (S)-N-((S)-3-oxo-1-((S)-2-oxopyrrolidin-3-yl)-4-(trifluoromethoxy)butan-2-yl)-5-(2-(trifluoromethyl)benzoyl)-5-azaspiro[2.4]heptane-6-carboxamide] | < 0.05 | – |
| CC(C)C[C@H](NC(=O)C(=O)N1CCCc2ccccc21)C(=O)N[C@@H](C[C@@H]1CCNC1=O)C(=O)COc1c(F)c(F)cc(F)c1F [Compound 149, (S)-2-(2-(3,4-dihydroquinolin-1(2H)-yl)-2-oxoacetamido)-4-methyl-N-((S)-3-oxo-l-((S)-2-oxopyrrolidin-3-yl)-4-(2,3,5,6-tetrafluorophenoxy)butan-2-yl)pentanamide] | – | EC50 [3]: 0.05 to 0.2 µM |
| CC(C)(C)NC(=O)C(=O)N1C[C@@H]2CC[C@@H]2[C@H]1C(=O)N[C@@H](C[C@@H]1CCNC1=O)C(=O)COC(F)(F)F [Compound 561, (1S,2S,5R)-3-(2-(tert-butylamino)-2-oxoacetyl)-N-((S)-3-oxo-1-((S)-2-oxopyrrolidin-3-yl)-4-(trifluoromethoxy)butan-2-yl)-3-azabicyclo-[3.2.0]heptane-2-carboxamide] | 0.2 to 0.5 | – |

— patent US11708348B2, “Protease inhibitors for treatment of coronavirus infections” (The Scripps Research Institute, priority 2021, dated 2023)
